# Test results from publication PMC8110578, “Phenylethynylbenzyl-modified biguanides inhibit pancreatic cancer tumor growth” (Scientific Reports, 2021).
# Like-named read-outs stand apart in the source and are kept apart here.
# How the values were obtained:
# [1] = test system: HPNE-hTERT cells; experiment: Cell death assay (trypan blue), HPNE-hTERT cells; assay type: cell-based, human; conditions: 15 µM for 24 h
# Text: Figure 3 Effects of biguanides on cell proliferation and viability in pancreatic cancer cells. […]. […] | decimal sign comma or point
# Experimental. […] At the end of the treatments, adherent cells were recovered by trypsinization, along with floating cells recovered by centrifugation of the culture medium. Floating and adherent cells were pooled together. The faction of dead cells was quantified by counting the proportion of trypan blue-positive (dead cells) and the proportion of living cells (trypan blue-negative).
# [2] = Octanol/water partition (logP) of compound 1b; assay type: physicochemical; conditions: for logP at 24 h: octanol/water
# Procedure: Experimental. A 10 µM or 20 µM solution of 1b was prepared in 5 ml of octanol and mixed with 5 ml distilled water at 25°C The solution was stirred and was left to settle for 24 hours before the absorbance of the octanol fraction was measured. The values obtained were fitted on a calibration curve prepared by measuring the absorbance of 1b in octanol at various concentrations (2.5, 10, 15, 20 and 30 µM). The logP was calculated using the following formula: […]
# Where [1b]oct is the concentration of 1b in octanol and [1b]water is the concentration of 1b in water.
compound,measurement,setting,value
"N=C(N)NC(=N)NCc1ccc(C#Cc2ccccc2)cc1 [1b, 4-(phenylethynyl)benzylbiguanide]",Effect on the fraction of dead HPNE cells,[1],did not increase the fraction of dead cells
same,[1b] in octanol,[2]; Partition 1 (10 µM),6.91 µM
same,[1b] in water,[2]; Partition 1 (10 µM),3.09 µM
same,[1b] in octanol,[2]; Partition 2 (20 µM),15.15 µM
same,[1b] in water,[2]; Partition 2 (20 µM),4.85 µM
same,logP at 24 h,"[2]; Partition 1 (10 µM), 25°C, 24 hours, read-out: logP",0.35
same,logP at 24 h,"[2]; Partition 2 (20 µM), 25°C, 24 hours, read-out: logP",0.5
same,logP at 24 h,"[2]; logP (mean of partitions 1 and 2), 25°C, spread ± 0.10 in its own column",0.42
same,logP at 24 h,[2]; read-out: logP,0.4
